Measurements taken from patent US20250319172A1, “ANTICANCER VACCINE COMPOSITION COMPRISING HSP90 ANTIGENIC PEPTIDE AND USE THEREOF” (ASTON SCI. INC., priority 2021, published 2025).

Tested on: HSP90 antigenic peptide-specific IFN-γ production in spleen cells
Assay: IFN-γ ELISpot of splenocytes after test vaccination (Th1 immune response), Example 1
Type: in vivo, C57BL/6 mice
Details: antigen HSP90 peptide of SEQ ID NO: 1; s.c. three times every 10 days; splenocytes 10 days after last inoculation; FIG. 1A
Description: To analyze the efficacy of antigenic peptides selected from HSP90 (see Table 1) and various adjuvants and liposomes, test vaccines were prepared with the compositions in Table 2 and Table 3. In the case of G6 and G7 formulations, since a liposome is included in the formulations, the drug release rate is slowed, and in this regard, the amount of antigenic peptide was reduced to 20% when preparing the test vaccine. The prepared test vaccine G to G7 formulations were immunized using C57BL/B6 mice (female, 7 weeks old), 4 mice per group. […]
The test vaccine was inoculated with each vaccine formulation by subcutaneous injection three times every 10 days for 4 mice in each group, and splenocytes were isolated from the spleens of mice sacrificed 10 days after the last inoculation, the specific response to each HSP90 antigenic peptide was measured through the ELISpot method for IFN-γ or IL-10 stimulated by the HSP90 antigenic peptide (stimulant) of SEQ ID NO: 1 or SEQ ID NO: 2 according to the previously known method by Disis et al. (J Clin Oncol. 2009 Oct. 1; 27 (28): 4685-92).
If HSP90 antigenic peptide-specific IFN-γ production increased in spleen cells measured by the ELISpot method after test vaccination, the Th1 immune response was considered activated, and if the HSP90 antigenic peptide-specific IL-10 production increased, the Th2 immune response was considered activated.

LYVRRVFIMDNCEEL [SEQ ID NO: 1, HSP90 antigenic peptide, region p485-499 of HSP90]
HSP90-specific Th1 immune response (IFN-γ ELISpot): effectively induces HSP90-specific T cell immune response
